Legend:
[1] = system: human retinal pigment epithelial cells; conditions: cited from earlier work
[2] = Evaluation of retinal penetration of NACA: NACA/NAC levels in plasma, aqueous, vitreous and retina after 20 mg/mL NACA in drinking water for 7 days; format: in vivo, mice (rd10 and wild type C57/BL6); conditions: for mean level in aqueous humor compared with plasma: 20 mg/mL NACA in drinking water (FIG. 2); for measurability in the retina: animals treated with NACA, N=20 eyes per strain (FIG. 4); for mean level in retina compared with plasma: either type of mice (FIG. 4 compared to FIG. 1); for mean retina levels: 20 mg/mL NACA in drinking water P28-P35, estimated dose 60-80 mg/day
Method: The objective of this study was to determine retinal levels of NACA/NAC after administration of 20 mg/mL NACA in drinking water for 7 days in a mouse model of RP and in wild type mice. This experiment was designed to provide rapid confirmation that NACA and/or NAC penetrate the retina following oral administration and to allow comparison of the tissue levels of NACA and NAC in vitreous and retina to plasma. It also provided a comparison of retinal penetration in mice with RP and wild type mice to determine if the breakdown in the blood-retinal barrier in RP affects the levels of NACA in the retina.
Animals and Treatments. Mice were treated in accordance with the recommendations of the Association for Research in Vision and Ophthalmology. Litters of homozygous rd10/rd10 mice (B6.CXB1-Pde6brd10/J) and wild type C57/BL6 mice (The Jackson Laboratory, Bar Harbor, Me.) were used for these studies.
Starting on post-natal day 28 (P28), animals were given normal drinking water (controls, n=10 for each strain) or water containing 20 mg/ml NACA (n=10 for each strain).
Analysis of NACA and NAC. Upon sacrifice of the mice on P35 (post-natal day 35), retina, aqueous, vitreous and plasma were collected, weighed, and stabilized as quickly as possible and stored at −80° C. prior to shipment to AIT Bioscience, LLC (Indianapolis, Ind.). The qualified bioanalytical method (BAM.0445.01) for the quantitation of total NAC NACA in K2EDTA was based on derivatization, protein precipitation extraction, and LC-MS/MS instrumental analysis. Any disulfides were reduced to free thiols and subsequently reacted with 2-chloro-1-methylpyridinium iodide (CMPI) to form stable thioethers. The thioether derivatives were detected by LC-MS/MS. Stable label isotope internal standards were used. The method covered a concentration range from 50.0 to 50,000 ng/mL.
Evaluation of Retinal Penetration of NACA. To determine retinal levels of NACA/NAC after administration of 20 mg/mL NACA in drinking water for 7 days. This experiment was designed to provide rapid confirmation that NACA penetrates the retina following oral administration and to compare levels of NACA and its major metabolite, NAC. in retina, aqueous humor, vitreous humor and plasma. This experiment was also designed to evaluate if the breakdown in the blood-retinal barrier in RP (simulated by the rd10 mice) affects the levels of NACA in the retina by comparing animals with RP to wild type mice.
Rd10 and C57BL/6 wild type mice began treatment at P28 (post-natal day 28), at P35 mice were euthanized and plasma, vitreous and retina samples were sent to AITBioscences (Indianapolis, Ind.) for determination of NACA and NAC levels by a validated method using high-pressure liquid chromatography with tandem mass spectrometric/mass spectrometric detection (LCMS). Experimental groups: (n=10/group). The research was performed in 4 discrete treatment groups: • 1. Rd10 allowed to freely drink NACA 20 mg/mL-spiked drinking water with measurements at P35; • 2. Rd10 allowed to freely drink untreated water with measurements at P35; • 3. C57/BL6 NACA 20 mg/mL in drinking water measurements at P35; • 4. C57/BL6 allowed to freely drink untreated water with measurements at P35.

[3] = cited from earlier work; for plasma level: rats, within 30 minutes following oral administration of 500 mg/kg NACA; for detection in the brain: within 30 minutes following oral administration of NACA
[4] = system: rd10 mice; conditions: 7 mg/mL NACA versus 20 mg/mL NAC in drinking water, P35 and P50; cited from earlier work
[5] = system: mice exposed to phototoxic doses of light; conditions: cited from earlier work
[6] = oral formulations; cited from earlier work
[7] = system: cone survival; conditions: orally administered; cited from earlier work

| Compound | protection against oxidative stress-induced cellular injury and death [1] | mean level in aqueous humor compared with plasma [2] | ratio of NACA:NAC in the retina, rd10 mice compared with C57/B16 mice ([2]; 20 mg/mL NACA in drinking water (FIG. 5)) | mean plasma level, rd10 mice compared with wild type ([2]; 20 mg/ml NACA in drinking water (FIG. 1)) | level in vitreous humor ([2]; N=7 or 8 eyes rd10, N=10 eyes C57/B16 (FIG. 3)) | mean concentration in aqueous humor, rd10 mice compared with wild type ([2]; N=8 eyes rd10, N=10 C57/B16 (FIG. 2)) | measurability in the retina [2] | mean NACA level in plasma compared with NAC level ([2]; both strains, 20 mg/ml NACA in drinking water, N=10 per strain (FIG. 1)) | mean level in retina compared with plasma [2] | mean retina levels ([2]; rd10 mice) | mean retina levels ([2]; wild type mice) [µg/g] | plasma level [3] [µM] | detection in the brain [3] | protection of scotopic and photopic b-waves and cone density [4] | retinal pigment epithelial cell integrity, outer nuclear layer cell death, photoreceptor function [5] | systemic bioavailability for oral administration [6] [%] | cone survival and cone function [7] |
| --- | --- | --- | --- | --- | --- | --- | --- | --- | --- | --- | --- | --- | --- | --- | --- | --- | --- |
| N-acetylcysteine amide [NACA] | protected against oxidative stress-induced cellular injury and death | lower than in plasma | greater in the retina of rd10 mice than in C57/B16 mice | greater in rd10 mice than in the wild type | A similar pattern was observed | higher in rd10 mice than wild type | measurable in all animals treated with NACA | greater than the NAC levels in both strains of mice | higher, in either type of mice, than those observed in plasma | approximately 6.5 μg/g | ~2.4 | 15.07 ± 5.08 | detected in the brain | more effective | maintained retinal pigment epithelial cell integrity, prevented outer nuclear layer cell death and rescued photoreceptor function | – | – |
| CC(=O)N[C@@H](CS)C(=O)O [NAC, N-Acetylcysteine, reference compound] | – | lower than in plasma | – | – | – | – | measurable in all animals treated with NACA | – | higher, in either type of mice, than those observed in plasma | – | – | 84.55 ± 6.73 | detected in the brain | – | – | < 10 | promotes prolonged cone survival and maintenance of cone function |

Reference: patent publication US20190151271A1, “COMPOSITIONS AND METHODS FOR TREATMENT OF EYE DISEASES” (The Johns Hopkins University, priority 2017, published 2019)
